Columns and labels:
Assay in all cases: Bliss excess, mean over the matrix (fraction); higher = more synergy
[1] = tested on: BFTC-905 (Bladder Carcinoma)
Procedure, shortened: (§1)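 Bliss excess equals the observed combination effect minus the expected value EA + EB − EA·EB, where EA and EB are the effects of each agent alone. Combination Emax is the second-highest inhibition within the matrix. Inhibition was scaled from CellTiter-Glo 2.0 luminescence, with 0 set by vehicle wells and 1 by blank wells, after 72 hours of two-drug dosing of cells plated in 1536-well plates.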

WM-115 (Melanoma) = tested on: WM-115 (Melanoma)
Procedure, shortened: as §1

[2] = tested on: CAMA-1 (Breast Carcinoma)
Procedure, shortened: as §1

WIL2-NS (Non-Cancerous) = tested on: WIL2-NS (Non-Cancerous)
Procedure, shortened: as §1

[3] = tested on: MKN28 (Gastric Carcinoma)
Procedure, shortened: as §1

ES8 (Ewing's Sarcoma) = tested on: ES8 (Ewing's Sarcoma)
Procedure, shortened: as §1

[4] = tested on: BL-41 (Burkitt's Lymphoma)
Procedure, shortened: as §1

[5] = tested on: GR-ST (B-Lymphoblastic Leukemia)
Procedure, shortened: as §1

[6] = tested on: KARPAS-45 (T-Lymphoblastic Leukemia)
Procedure, shortened: as §1

[7] = tested on: KM12 (Colorectal Carcinoma)
Procedure, shortened: as §1

MEL-JUSO (Melanoma) = tested on: MEL-JUSO (Melanoma)
Procedure, shortened: as §1

NCI-H2818 (Mesothelioma) = tested on: NCI-H2818 (Mesothelioma)
Procedure, shortened: as §1

[8] = tested on: NCI-H847 (Small Cell Lung Carcinoma)
Procedure, shortened: as §1

[9] = tested on: HL-60 (Acute Myeloid Leukemia)
Procedure, shortened: as §1

ES1 (Ewing's Sarcoma) = tested on: ES1 (Ewing's Sarcoma)
Procedure, shortened: as §1

[10] = tested on: SU-DHL-8 (B-Cell Non-Hodgkin's Lymphoma)
Procedure, shortened: as §1

CHP-212 (Neuroblastoma) = tested on: CHP-212 (Neuroblastoma)
Procedure, shortened: as §1

[11] = tested on: MOLT-16 (T-Lymphoblastic Leukemia)
Procedure, shortened: as §1

[12] = tested on: SW1417 (Colorectal Carcinoma)
Procedure, shortened: as §1

[13] = tested on: MS751 (Cervical Carcinoma)
Procedure, shortened: as §1

SMILES	Bliss excess [1]	Bliss excess (WM-115 (Melanoma))	Bliss excess [2]	Bliss excess (WIL2-NS (Non-Cancerous))	Bliss excess [3]	Bliss excess (ES8 (Ewing's Sarcoma))	Bliss excess [4]	Bliss excess [5]	Bliss excess [6]	Bliss excess [7]	Bliss excess (MEL-JUSO (Melanoma))	Bliss excess (NCI-H2818 (Mesothelioma))	Bliss excess [8]	Bliss excess [9]	Bliss excess (ES1 (Ewing's Sarcoma))	Bliss excess [10]	Bliss excess (CHP-212 (Neuroblastoma))	Bliss excess [11]	Bliss excess [12]	Bliss excess [13]
CN(C)CCCOc1ccc(-c2ccc3ncc4c(c3c2)n(C2CCOCC2)c(=O)n4C)cn1 [AZD0156] + O=C(c1cc(Cc2n[nH]c(=O)c3ccccc23)ccc1F)N1CCN(C(=O)C2CC2)CC1 [Olaparib] (first compound max 3 µM, partner max 3 µM)	0.175	0.0028	0.0457	0.215	-0.0432	0.39	0.127	0.131	0.0456	0.121	-0.0387	-0.0202	0.227	0.141	0.245	0.0543	0.222	0.397	-0.0287	-0.0033
CC1(C)CCC(CN2CCN(c3ccc(C(=O)NS(=O)(=O)c4ccc(NCC5CCOCC5)c([N+](=O)[O-])c4)c(Oc4cnc5[nH]ccc5c4)c3)CC2)=C(c2ccc(Cl)cc2)C1 [Venetoclax] + CN(C)CCCOc1ccc(-c2ccc3ncc4c(c3c2)n(C2CCOCC2)c(=O)n4C)cn1 [AZD0156] (first compound max 1 µM, 7x7, partner max 1 µM)	0.0232	-0.0314	-0.0161	-0.0296	0.0042	0.0212	0.0008	-0.0363	-0.0096	-0.0126	-0.0128	-0.0501	0.037	0.0448	0.0421	-0.0201	-0.034	0.0462	-0.0332	0.0165
Cc1c2c(nn1C)CSCc1cc(n(C)n1)CSc1cc(c3ccccc3c1)OCCCc1c(C(=O)O)n(C)c3c-2c(Cl)ccc13 [AZD5991] + C=CCn1c(=O)c2cnc(Nc3ccc(N4CCN(C)CC4)cc3)nc2n1-c1cccc(C(C)(C)O)n1 [AZD1775] (first compound max 1 µM, partner max 1 µM)	-0.0212	-0.0328	-0.0092	0	-0.0227	0.0203	-0.0133	-0.0402	-0.0189	0.0031	-0.0033	0.112	-0.0445	-0.0149	-0.0524	-0.01	-0.0508	0.01	-0.0548	-0.0155
COc1cccc(OCCCN)c1-c1cc(Nc2cnc(C#N)cn2)n[nH]1 [Prexasertib] + C[C@@H]1COCCN1C2=NC(=NC(=C2)C3(CC3)[S@](=N)(=O)C)C4=C5C=CNC5=NC=C4 [AZD6738] (first compound max 1 µM, 7x7, partner max 10 µM)	0.0096	0.0242	-0.0484	-0.0021	0.0579	-0.0371	-0.0066	-0.0845	-0.0117	-0.0494	-0.0307	-0.0168	-0.035	-0.0289	-0.0142	-0.0214	-0.0776	0.0291	0.0572	0.0539
CN(CCO)CC[C@H](CSc1ccccc1)Nc1ccc(S(=O)(=O)NC(=O)c2ccc(N3CCC([C@@H](O)c4ccccc4-c4ccc(Cl)cc4)CC3)cc2)cc1S(=O)(=O)C(F)(F)F [AZD4320] + Cc1cc2ncnn2cc1Nc1ncc2c(n1)n(C1CCOCC1)c(=O)n2C [AZD7648] (first compound max 1 µM, 7x7, partner max 10 µM)	-0.0375	-0.0054	-0.0031	-0.029	-0.036	-0.0594	0.0115	-0.0157	0.042	-0.0234	-0.0065	-0.0715	0.0478	0.0074	-0.0222	-0.0255	-0.0441	-0.0059	-0.0426	-0.0353
CC(=O)Nc1cccc(-n2c(=O)n(C3CC3)c(=O)c3c(Nc4ccc(I)cc4F)n(C)c(=O)c(C)c32)c1 [Trametinib] + Cc1nc(-c2cn3c(n2)-c2ccc(-c4cnn(C(C)(C)C(N)=O)c4)cc2OCC3)n(C(C)C)n1 [Taselisib] (first compound max 1 µM, 7x7, partner max 10 µM)	0.167	0.048	-0.0565	0.174	0.0966	-0.0924	0.0485	-0.0059	0.112	0.0284	0.12	-0.0103	0.0603	0.228	0.0161	-0.0358	0.0363	0.006	-0.0045	0.128
C=CCn1c(=O)c2cnc(Nc3ccc(N4CCN(C)CC4)cc3)nc2n1-c1cccc(C(C)(C)O)n1 [AZD1775] + C1CN(CCC1(C(=O)N[C@@H](CCO)C2=CC=C(C=C2)Cl)N)C3=NC=NC4=C3C=CN4 [Capivasertib] (first compound max 3 µM, partner max 3 µM)	-0.0499	-0.116	-0.0244	-0.0675	-0.0219	0.0352	0.0156	-0.0771	-0.0046	-0.0162	-0.0352	-0.0493	-0.0643	0.0265	-0.0219	0.0097	-0.077	0.0568	-0.0368	0.0003
CCN(CCO)CCCOc1ccc2c(Nc3cc(CC(=O)Nc4cccc(F)c4)[nH]n3)ncnc2c1 [AZD2811] + O=C(c1cc(Cc2n[nH]c(=O)c3ccccc23)ccc1F)N1CCN(C(=O)C2CC2)CC1 [Olaparib] (first compound max 1 µM, 7x7, partner max 10 µM)	-0.0029	-0.0343	-0.0308	-0.033	-0.0319	-0.0296	-0.121	-0.0358	-0.115	0.0068	-0.0015	-0.0415	-0.0464	-0.082	0.0749	0.102	-0.0249	0.0395	-0.0456	-0.0068
COc1cccc(OCCCN)c1-c1cc(Nc2cnc(C#N)cn2)n[nH]1 [Prexasertib] + O=C(c1cc(Cc2n[nH]c(=O)c3ccccc23)ccc1F)N1CCN(C(=O)C2CC2)CC1 [Olaparib] (first compound max 1 µM, 7x7, partner max 10 µM)	-0.0751	-0.0557	-0.188	-0.0174	-0.133	-0.066	-0.0346	-0.111	-0.0081	-0.0192	-0.0741	-0.0136	-0.0027	-0.0781	-0.0161	-0.0668	-0.0592	-0.0198	-0.0459	0.034
CC1(C)CCC(CN2CCN(c3ccc(C(=O)NS(=O)(=O)c4ccc(NCC5CCOCC5)c([N+](=O)[O-])c4)c(Oc4cnc5[nH]ccc5c4)c3)CC2)=C(c2ccc(Cl)cc2)C1 [Venetoclax] + C[C@@H](Nc1cc(F)cc(F)c1)c1cc(C(=O)N(C)C)cc2c(=O)cc(N3CCOCC3)oc12 [AZD8186] (first compound max 1 µM, 7x7, partner max 3 µM)	-0.0516	-0.0112	-0.0706	-0.0168	-0.0248	-0.0777	0.0218	-0.0713	0.201	-0.0327	-0.0487	-0.0557	0.106	0.0249	-0.0374	-0.041	-0.0118	0.0388	-0.0747	0.006
C=CCn1c(=O)c2cnc(Nc3ccc(N4CCN(C)CC4)cc3)nc2n1-c1cccc(C(C)(C)O)n1 [AZD1775] + C[C@@H]1COCCN1C2=NC(=NC(=C2)C3(CC3)[S@](=N)(=O)C)C4=C5C=CNC5=NC=C4 [AZD6738] (first compound max 1 µM, partner max 10 µM)	0.0665	-0.0523	0.0371	0.0269	0.0597	0.0178	0.0369	-0.0217	0.0465	0.0228	0.0009	-0.0577	0.0684	0.0975	0.0487	-0.0202	-0.0567	0.0101	-0.0253	0.0075
COc1cccc(OCCCN)c1-c1cc(Nc2cnc(C#N)cn2)n[nH]1 [Prexasertib] + Cc1cc2ncnn2cc1Nc1ncc2c(n1)n(C1CCOCC1)c(=O)n2C [AZD7648] (first compound max 1 µM, 7x7, partner max 10 µM)	-0.0492	-0.0102	-0.0206	-0.0285	-0.0172	-0.0489	-0.0265	-0.0363	-0.0044	-0.0399	-0.0383	-0.032	0.0131	0.0133	0.0088	-0.0221	-0.0467	0.0121	0.001	-0.0156
